Measurements published in PubChem BioAssay (NCI).
“And” between values parts separate entries of the source, which are not always exact repeats. Equal entries are not always repeated.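 Following 48 hours of exposure in 96-well plates, responses at five concentrations were used to interpolate endpoints linearly. GI50 = concentration required for 50% inhibition of growth. TGI marks complete inhibition of growth.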

Legend:
Experiment in all cases: growth of human tumour cells (NCI), 48 h
786-0 renal = tested on: 786-0 renal
A498 renal = tested on: A498 renal
A549 NSCLC = tested on: A549 NSCLC
ACHN renal = tested on: ACHN renal
BT-549 breast = tested on: BT-549 breast
CAKI-1 renal = tested on: CAKI-1 renal
CCRF-CEM leukemia = tested on: CCRF-CEM leukemia
COLO 205 colon = tested on: COLO 205 colon
DU-145 prostate = tested on: DU-145 prostate
EKVX NSCLC = tested on: EKVX NSCLC
HCC-2998 colon = tested on: HCC-2998 colon
HCT-116 colon = tested on: HCT-116 colon
HCT-15 colon = tested on: HCT-15 colon
HL-60(TB) leukemia = tested on: HL-60(TB) leukemia
HOP-62 NSCLC = tested on: HOP-62 NSCLC
HOP-92 NSCLC = tested on: HOP-92 NSCLC
HS 578T breast = tested on: HS 578T breast
HT29 colon = tested on: HT29 colon
IGROV1 ovarian = tested on: IGROV1 ovarian
K-562 leukemia = tested on: K-562 leukemia
KM12 colon = tested on: KM12 colon
LOX IMVI melanoma = tested on: LOX IMVI melanoma
M14 melanoma = tested on: M14 melanoma
MALME-3M melanoma = tested on: MALME-3M melanoma
MCF7 breast = tested on: MCF7 breast
MDA-MB-231 breast = tested on: MDA-MB-231 breast
MDA-MB-435 = tested on: MDA-MB-435
MDA-MB-468 breast = tested on: MDA-MB-468 breast
MOLT-4 leukemia = tested on: MOLT-4 leukemia
NCI-H226 lung = tested on: NCI-H226 lung
NCI-H23 lung = tested on: NCI-H23 lung
NCI-H460 lung = tested on: NCI-H460 lung
NCI-H522 lung = tested on: NCI-H522 lung
NCI/ADR-RES ovarian = tested on: NCI/ADR-RES ovarian
OVCAR-3 ovarian = tested on: OVCAR-3 ovarian
OVCAR-4 ovarian = tested on: OVCAR-4 ovarian
OVCAR-5 ovarian = tested on: OVCAR-5 ovarian
OVCAR-8 ovarian = tested on: OVCAR-8 ovarian
PC-3 prostate = tested on: PC-3 prostate
RPMI-8226 leukemia = tested on: RPMI-8226 leukemia
RXF 393 renal = tested on: RXF 393 renal
SF-268 CNS = tested on: SF-268 CNS
SF-295 CNS = tested on: SF-295 CNS
SF-539 CNS = tested on: SF-539 CNS
SK-MEL-2 melanoma = tested on: SK-MEL-2 melanoma
SK-MEL-28 melanoma = tested on: SK-MEL-28 melanoma
SK-MEL-5 melanoma = tested on: SK-MEL-5 melanoma
SK-OV-3 ovarian = tested on: SK-OV-3 ovarian
SN12C renal = tested on: SN12C renal
SNB-19 CNS = tested on: SNB-19 CNS
SNB-75 CNS = tested on: SNB-75 CNS
SR leukemia = tested on: SR leukemia
SW-620 colon = tested on: SW-620 colon
T-47D breast = tested on: T-47D breast
TK-10 renal = tested on: TK-10 renal
U251 CNS = tested on: U251 CNS
UACC-257 melanoma = tested on: UACC-257 melanoma
UACC-62 melanoma = tested on: UACC-62 melanoma
UO-31 renal = tested on: UO-31 renal

With O=C(c1cc2cc(OCCCN3CCC3)ccc2[nH]1)N1C[C@@H](CCl)c2c1cc(OCc1ccccc1)c1ccccc21 the GI50 (786-0 renal) was 293 nM and 266 nM, the TGI (786-0 renal) was 913 nM and 1710 nM and the GI50 (A498 renal) was 235 nM. For the same compound, the TGI (A498 renal) was 633 nM, the GI50 (A549 NSCLC) was 157 nM and 161 nM and the TGI (A549 NSCLC) was 626 nM and 2540 nM. The GI50 (ACHN renal) was 78.5 nM and 34.6 nM, the TGI (ACHN renal) was 248 nM and 96.7 nM and the GI50 (BT-549 breast) was 384 nM and 530 nM. The TGI (BT-549 breast) was 1720 nM and 2190 nM, the GI50 (CAKI-1 renal) was 289 nM and 193 nM and the TGI (CAKI-1 renal) was 1500 nM and 1680 nM. For the same compound, the GI50 (CCRF-CEM leukemia) was 845 nM and 408 nM, the TGI (CCRF-CEM leukemia) was 7750 nM and 17500 nM and the GI50 (COLO 205 colon) was 629 nM and 280 nM. The TGI (COLO 205 colon) was 1990 nM and 644 nM, the GI50 (DU-145 prostate) was 254 nM and 82 nM and the TGI (DU-145 prostate) was 1250 nM and 2920 nM. For the same compound, the GI50 (EKVX NSCLC) was 271 nM and 371 nM, the TGI (EKVX NSCLC) was 1370 nM and 956 nM and the GI50 (HCC-2998 colon) was 255 nM and 319 nM. For the same compound, the TGI (HCC-2998 colon) was 1230 nM and 660 nM, the GI50 (HCT-116 colon) was 147 nM and 637 nM and the TGI (HCT-116 colon) was 443 nM and 2460 nM. The GI50 (HCT-15 colon) was 171 nM and 134 nM, the TGI (HCT-15 colon) was 838 nM and 787 nM and the GI50 (HL-60(TB) leukemia) was 1220 nM and 442 nM. For the same compound, the TGI (HL-60(TB) leukemia) was 3560 nM and 4050 nM, the GI50 (HOP-62 NSCLC) was 214 nM and 139 nM and the TGI (HOP-62 NSCLC) was 694 nM and 647 nM. The GI50 (HOP-92 NSCLC) was 1160 nM and 504 nM, the TGI (HOP-92 NSCLC) was 3280 nM and 1830 nM and the GI50 (HS 578T breast) was 1250 nM and 746 nM. For the same compound, the TGI (HS 578T breast) was 3980 nM and 5990 nM, the GI50 (HT29 colon) was 285 nM and 273 nM and the TGI (HT29 colon) was 1350 nM and 2000 nM. For the same compound, the GI50 (IGROV1 ovarian) was 310 nM and 189 nM, the TGI (IGROV1 ovarian) was 1470 nM and 1330 nM and the GI50 (K-562 leukemia) was 302 nM and 251 nM. For the same compound, the TGI (K-562 leukemia) was 19800 nM, the GI50 (KM12 colon) was 731 nM and 813 nM and the TGI (KM12 colon) was 2220 nM and 10100 nM. For the same compound, the GI50 (LOX IMVI melanoma) was 132 nM and 56.4 nM, the TGI (LOX IMVI melanoma) was 427 nM and 451 nM and the GI50 (M14 melanoma) was 283 nM and 212 nM. The TGI (M14 melanoma) was 1210 nM and 653 nM, the GI50 (MALME-3M melanoma) was 481 nM and 276 nM and the TGI (MALME-3M melanoma) was 1790 nM and 557 nM. For the same compound, the GI50 (MCF7 breast) was 10.5 nM and 3.22 nM, the TGI (MCF7 breast) was 324 nM and 851 nM and the GI50 (MDA-MB-231 breast) was 691 nM and 544 nM. The TGI (MDA-MB-231 breast) was 2100 nM and 1360 nM, the GI50 (MDA-MB-435) was 1050 nM and 331 nM and the TGI (MDA-MB-435) was 2270 nM and 739 nM. The GI50 (MDA-MB-468 breast) was 43.8 nM, the TGI (MDA-MB-468 breast) was 130 nM and the GI50 (MOLT-4 leukemia) was 339 nM and 272 nM. For the same compound, the TGI (MOLT-4 leukemia) was 4560 nM and 3870 nM, the GI50 (NCI-H226 lung) was 1210 nM and 211 nM and the TGI (NCI-H226 lung) was 4340 nM and 631 nM. The GI50 (NCI-H23 lung) was 186 nM and 73 nM, the TGI (NCI-H23 lung) was 619 nM and 318 nM and the GI50 (NCI-H460 lung) was 121 nM and 17.1 nM. For the same compound, the TGI (NCI-H460 lung) was 469 nM and 1120 nM, the GI50 (NCI-H522 lung) was 1230 nM and 384 nM and the TGI (NCI-H522 lung) was 2870 nM and 929 nM. The GI50 (NCI/ADR-RES ovarian) was 252 nM, the TGI (NCI/ADR-RES ovarian) was 1400 nM and the GI50 (OVCAR-3 ovarian) was 1130 nM and 497 nM. The TGI (OVCAR-3 ovarian) was 2620 nM and 1610 nM, the GI50 (OVCAR-4 ovarian) was 1130 nM and 536 nM and the TGI (OVCAR-4 ovarian) was 3010 nM and 1690 nM. The GI50 (OVCAR-5 ovarian) was 302 nM and 345 nM, the TGI (OVCAR-5 ovarian) was 1040 nM and 1060 nM and the GI50 (OVCAR-8 ovarian) was 274 nM and 242 nM. For the same compound, the TGI (OVCAR-8 ovarian) was 1440 nM and 1530 nM, the GI50 (PC-3 prostate) was 294 nM and 367 nM and the TGI (PC-3 prostate) was 2630 nM and 4600 nM. For the same compound, the GI50 (RPMI-8226 leukemia) was 941 nM and 496 nM, the TGI (RPMI-8226 leukemia) was 9530 nM and 9500 nM and the GI50 (RXF 393 renal) was 362 nM and 234 nM. For the same compound, the TGI (RXF 393 renal) was 1630 nM and 509 nM, the GI50 (SF-268 CNS) was 437 nM and 332 nM and the TGI (SF-268 CNS) was 2420 nM and 2040 nM. For the same compound, the GI50 (SF-295 CNS) was 154 nM and 46.1 nM, the TGI (SF-295 CNS) was 447 nM and 230 nM and the GI50 (SF-539 CNS) was 225 nM and 295 nM. The TGI (SF-539 CNS) was 1000 nM and 663 nM, the GI50 (SK-MEL-2 melanoma) was 1090 nM and 374 nM and the TGI (SK-MEL-2 melanoma) was 2320 nM and 659 nM. For the same compound, the GI50 (SK-MEL-28 melanoma) was 507 nM and 329 nM, the TGI (SK-MEL-28 melanoma) was 1800 nM and 749 nM and the GI50 (SK-MEL-5 melanoma) was 322 nM and 272 nM. For the same compound, the TGI (SK-MEL-5 melanoma) was 1300 nM and 537 nM, the GI50 (SK-OV-3 ovarian) was 401 nM and 453 nM and the TGI (SK-OV-3 ovarian) was 1640 nM and 1720 nM. The GI50 (SN12C renal) was 345 nM and 357 nM, the TGI (SN12C renal) was 1500 nM and 2110 nM and the GI50 (SNB-19 CNS) was 687 nM and 333 nM. For the same compound, the TGI (SNB-19 CNS) was 2330 nM and 2400 nM, the GI50 (SNB-75 CNS) was 1020 nM and the TGI (SNB-75 CNS) was 2210 nM. For the same compound, the GI50 (SR leukemia) was 97.4 nM and 43.9 nM, the TGI (SR leukemia) was 5010 nM and the GI50 (SW-620 colon) was 234 nM and 258 nM. The TGI (SW-620 colon) was 1560 nM and 1280 nM, the GI50 (T-47D breast) was 375 nM and 202 nM and the TGI (T-47D breast) was 1690 nM and 1040 nM. For the same compound, the GI50 (TK-10 renal) was 1530 nM and 562 nM, the TGI (TK-10 renal) was 3000 nM and 1420 nM and the GI50 (U251 CNS) was 247 nM and 61.2 nM. For the same compound, the TGI (U251 CNS) was 1030 nM and 2390 nM, the GI50 (UACC-257 melanoma) was 792 nM and the TGI (UACC-257 melanoma) was 2300 nM. For the same compound, the GI50 (UACC-62 melanoma) was 145 nM and 62 nM, the TGI (UACC-62 melanoma) was 481 nM and 325 nM and the GI50 (UO-31 renal) was 171 nM and 264 nM. For the same compound, the TGI (UO-31 renal) was 449 nM and 681 nM.
